Experimental data published in ChEMBL document CHEMBL4425174, “Design, synthesis and optimization of novel Alk5 (activin-like kinase 5) inhibitors” (Bioorg Med Chem Lett, 2016).

Assay: Oral bioavailability in rat
Type: ADME, organism-based
Settings: in vivo

Row | Structure (SMILES) | bioavailability
1 | Fc1cc(F)c(-c2cc(Nc3ccncc3)c3cc[nH]c3n2)cc1Cl | 13%
2 | Fc1ccc(-c2cc(Nc3ccncc3)c3cc[nH]c3n2)c(F)c1 | 65%
3 | C[C@H](O)CNC(=O)c1cnccc1Nc1cc(-c2cc(Cl)ccc2F)nc2[nH]ccc12 | 17%
4 | Cc1cnc(-c2cc(Cl)ccc2F)cc1-n1c(=O)n(CC(N)=O)c2cnccc21 [TP-008] | 62%
